Consider six molecules from patent US6962712B2, “Cosmetic or dermatological composition comprising of a combination of an elastase inhibitor of the N-acylaminoamide family and at least one antifungal agent or at least one antibacterial agent” (L'Oreal, priority 2001, dated 2005).

In assay [1] the test system is Staphylococcus epidermis. Put plainly: ex vivo bacteria/skin adhesion model, 3H-thymidine labelled bacteria on intact human skin (Example 8). The format is cell-based. The note with it: test product at 10%, 1 hour at 20° C., control (PBS) = 100%. As to the method: The activity of the honey on the adhesion of micro-organisms to the skin or to human mucous membranes was measured.
This ex vivo bacteria/skin adhesion model is based on the use of intact human skin mounted in a sandwich between a bottomless 96 wells plate and a Plexiglas support. The impervious individualized wells make it possible to test in a standard format the effect of acacia honey on the adhesion of Staphylococcus epidermis (resident bacteria) to the surface of the skin. The bacteria are radiolabelled in the growth phase by the incorporation of 3H-thymidine. This bacterial flora is then deposited in each well. After incubation for one hour at 20° C., the wells are washed three times with phosphate buffered saline (PBS) in order to remove the free bacteria. The acacia honey is then added at 5 and 10% and incubation allowed to proceed for 1 hour at 20° C. At the end of this incubation the content of each well is recovered and counted in scintillation fluid (desorbed bacteria). The wells are then washed with a chaotropic solution which leads to the elution of the adherent bacteria. The washing solutions are also counted in scintillation fluid (adherent bacteria). The positive and negative controls (Fucogel® acid (poly-[(α-1,3)-Fuc-(α-1,3)-Gal-(α-1,3)-galacturonic]) acid and Bioecolia® (Oligo-[α-1,4)-Gluc-(α-1,2)-Fruc-(α-1,6)-Gluc]) described in the publication of Wolf F. et al. (edition of 19th IFSCC Congress, Sydney, 1996) are included in the study as references.

Assay [2] has as its target T1, human leukocyte elastase (HLE) (Homo sapiens, UniProt P08246).
T1 sequence (P08246 30-267): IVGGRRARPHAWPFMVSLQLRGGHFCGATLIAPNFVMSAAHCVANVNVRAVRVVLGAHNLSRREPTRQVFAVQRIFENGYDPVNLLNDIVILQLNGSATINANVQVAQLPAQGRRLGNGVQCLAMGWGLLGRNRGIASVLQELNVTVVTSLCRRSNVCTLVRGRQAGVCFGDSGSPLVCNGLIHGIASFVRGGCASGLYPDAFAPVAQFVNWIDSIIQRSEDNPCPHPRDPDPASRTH
Put plainly: in vitro anti-elastase activity against human leukocyte elastase, substrate Me-OSAAPV-p-NA, spectrophotometry. The format is biochemical. The note with it: compound concentration 0.1%; HLE 40 milliunits per ml; 37° C., 60 minutes. As to the method:
The anti-elastase activity of compounds according to the invention was determined in vitro against human leukocyte elastase (HLE)
The test was performed in the following manner:
A substrate Me-OSAAPV-p-NA (methyl-O-succinate alanine alanine proline valine-p-nitroanilide) to which is added the HLE (40 milliunits per ml) and 0.1% of the test compound is incubated at 37° C. for 60 minutes.
The % of inhibition of the elastase activity tested is then determined by spectrophotometry.

Assay [3] relates to Staphylococcus epidermis. In words: ex vivo bacteria/skin adhesion model, 3H-thymidine labelled bacteria on intact human skin (Example 9). The note with it: for Adherent bacteria: control (PBS) = 100%. The format is cell-based. On the procedure:
The activity of resveratrol on the adhesion of micro-organisms to human skin or human mucous membranes was measured.
The activity of resveratrol (3,4′,5-trihydroxystilbene) on the adhesion of micro-organisms to human skin or human mucous membranes was tested in a bacteria/skin adhesion model, such as described below.
This ex vivo bacteria/skin adhesion model is based on the use of explants of intact human skin mounted in a sandwich between a bottomless 96 wells plate and a Plexiglas support.
This ex vivo bacteria/skin adhesion model is based on the use of intact human skin mounted in a sandwich between a bottomless 96 wells plate and a Plexiglas support. The impervious individualized wells make it possible to test in a standard format the effect of resveratrol on the adhesion of Staphylococcus epidermis (resident bacteria) to the surface of the skin. The bacteria are radiolabelled in the growth phase by the incorporation of 3H-thymidine. This bacterial flora is then deposited in each well. After incubation for one hour at 20° C., the wells are washed three times with phosphate buffered saline (PBS) in order to remove the free bacteria. The acacia honey is then added at 5 and 10% and incubation allowed to proceed for 1 hour at 20° C. At the end of this incubation the content of each well is recovered and counted in scintillation fluid (desorbed bacteria). The wells are then washed with a chaotropic solution which leads to the elution of the adherent bacteria. The washing solutions are also counted in scintillation fluid (adherent bacteria). A positive control (Fucogel® acid (poly-[(α-1,3)-Fuc-(α-1,3)-Gal-(α-1,3)-galacturonic]) acid is included in the study as reference.

The subject of assay [4] is surviving human skins irradiated by UVA. Put plainly: surviving human skins irradiated by UVA (8 J/cm2), morphometry of elastin fibres and collagen (Example 6). The note with it: UVA 8 J/cm2 once, 5 μl of compound at 0.2% in ethanol every two days, 7 days at 37° C. On the procedure: The activity of the compound of Example 2 was evaluated on irradiated surviving human skins irradiated by UVA (8 J/cm2).
The test is performed in the following manner:
Fragments of normal human skin derived from four different donors are deposited in inserts placed in culture wells. Culture medium supplemented with antibiotics is added to the bottom of the wells. Passage by slow diffusion occurs between the two compartments through the intermediary of a porous membrane (pore size: 12 μm).
The culture medium is renewed every three days.
Every two days 5 μl of the test compound previously dissolved at 0.2% in ethanol are added to the skin fragments.
The skins are maintained in survival for 7 days at 37° C.
The skins are irradiated once only at 8 J/cm2 (Vilbert-Lourmat RMX-3W lamp).
The elastin fibres are stained blue with (+) catechol and quantified morphometrically by computer-assisted image analysis. The mean percentage dermal surface area occupied by the elastin fibres was thus evaluated.

The mark [5] stands for this setting: Staphylococcus, read-out: % of inhibition of adhesion of the bacteria.

In the assay with Staphylococcus epidermis [1], “Oligo-[α-1,4)-Gluc-(α-1,2)-Fruc-(α-1,6)-Gluc] [Bloé´colia ®]” yielded an Adherent bacteria of 76% and a Desorbed bacteria of 89%. Besides, in the assay on Staphylococcus epidermis [1] (listed as Bioecolia®), the Adherent bacteria result was “no significant effect on adhesion”.

On to `CCOP(=O)(CC(=O)N(Cc1ccccc1)C(C(=O)NCCOC(C)=O)C(C)C)OCC` (centres unmarked) [Compound B, (2-{benzyl-[(diethoxy-phosphoryl)-acetyl]-amino}-3-methyl-butyryl-amino)ethyl acetate], for which the “% inhibition of elastase activity tested” value in assay [2] is reported as 17%.

Usually inhibition stands for the percentage by which the read-out fell short of the control. `Oc1ccc(C=Cc2cc(O)cc(O)c2)cc1` [resveratrol, 3,4′,5-trihydroxystilbene] registered an Adherent bacteria in the assay with Staphylococcus epidermis [3] (0.1 μM) of 71%. Moreover, the Adherent bacteria in the assay on Staphylococcus epidermis [3] (10 μM) was 64%. In the assay with Staphylococcus epidermis [3] (setting [5]), the inhibition at 0.1 µM amounted to 29% and the inhibition at 10 µM came to 36%.

In the case of `CC(=O)OCCNC(=O)C(C(C)C)N(Cc1ccccc1)C(C)=O` (centres unmarked) [Compound D, [2-(acetyl-benzyl-amino)-3-methyl-butyrylamino]ethyl acetate], the “% inhibition of elastase activity tested” value in assay [2] came out at 13%.

Regarding `CC(=O)N(c1cccc(C(F)(F)F)c1)C(C(=O)NCC(=O)O)C(C)C` (centres unmarked) [Compound A, {2-[acetyl-(3-trifluoromethyl-phenyl)-amino]-3-methyl-butyrylamino}acetic acid], in assay [4] (untreated 6.75%, UVA alone 3.9%), the “Morphometric analysis of elastin fibres (superficial dermis)” value stood at 6.8%. Moreover, the “Morphometric analysis of collagen (superficial dermis)” value in assay [4] (untreated 87%, UVA alone 81%) is recorded as 92%.

In the assay on Staphylococcus epidermis [1], “poly-[(α-1,3)-Fuc-(α-1,3)-Gal-(α-1,3)-galacturonic]) acid [Fucogel ®]” returned an Adherent bacteria of 12% and a Desorbed bacteria of 257%. For the same molecule, the Adherent bacteria with Staphylococcus epidermis [3] (test product at 10%) is given as 42%.
